Assay results reported in patent US8178579B2, “Dioxanes and uses thereof” (President and Fellows of Harvard College, priority 2001, dated 2012).

Tests used:
HeLa cells = assay: high throughput microscopy of HeLa cells; type: cell-based; conditions: single-compound assays
Excerpt: The cellular basis of these phenotypes has not been investigated. No phenotypes consistent with mitotic arrest were observed.

HDAC1 = target: T1, HDAC1 (Homo sapiens, UniProt Q13547); assay: HDAC assay, [3H]acetate-incorporated histones with immunoprecipitated FLAG-tagged HDAC1; type: biochemical; conditions: calculated IC50, data in duplicate, at least two experiments; read-out: IC50 against HDAC1
T1 construct: made in house; host or cells: TAg-Jurkat cells, transient transfection, then immunoprecipitation
Method: (§1) Cell culture and Transfections. TAg-Jurkat cells were transfected by electroporation with 5 μg of FLAG-epitope-tagged pBJ5 constructs (as described in ref. 5c) for expression of recombinant proteins. Cells were harvested 48 h posttransfection.
HDAC assays. [^3H]Acetate-incorporated histones were isolated from butyrate-treated HeLa cells by hydroxyapatite chromatography (as described in Tong, et al. Nature 1997, 395, 917-921.) Immunoprecipitates were incubated with 1.4 μg (10,000 dpm) histones for 3 h at 37° C. HDAC activity was determined by scintillation counting of the ethyl acetate-soluble [^3H]acetic acid (as described in Taunton, et al., Science 1996, 272, 408-411). Compounds were added in DMSO such that final assay concentrations were 1% DMSO. IC50s were calculated using Prism 3.0 software. Curve fitting was done without constraints using the program's Sigmoidal-Dose Response parameters. All data points were acquired in duplicate and IC50s are calculated from the composite results of at least two separate experiments.

HDAC6 = target: T2, HDAC6 (Homo sapiens, UniProt Q9UBN7); assay: HDAC assay, [3H]acetate-incorporated histones with immunoprecipitated FLAG-tagged HDAC6 (HDAC6F); type: biochemical; set-up: made in house; host or cells: TAg Jurkat cells, transient transfection, anti-FLAG M2 immunoprecipitation; conditions: calculated IC50, data in duplicate, at least two experiments; read-out: IC50 against HDAC6
T2 sequence (Q9UBN7 1-1215): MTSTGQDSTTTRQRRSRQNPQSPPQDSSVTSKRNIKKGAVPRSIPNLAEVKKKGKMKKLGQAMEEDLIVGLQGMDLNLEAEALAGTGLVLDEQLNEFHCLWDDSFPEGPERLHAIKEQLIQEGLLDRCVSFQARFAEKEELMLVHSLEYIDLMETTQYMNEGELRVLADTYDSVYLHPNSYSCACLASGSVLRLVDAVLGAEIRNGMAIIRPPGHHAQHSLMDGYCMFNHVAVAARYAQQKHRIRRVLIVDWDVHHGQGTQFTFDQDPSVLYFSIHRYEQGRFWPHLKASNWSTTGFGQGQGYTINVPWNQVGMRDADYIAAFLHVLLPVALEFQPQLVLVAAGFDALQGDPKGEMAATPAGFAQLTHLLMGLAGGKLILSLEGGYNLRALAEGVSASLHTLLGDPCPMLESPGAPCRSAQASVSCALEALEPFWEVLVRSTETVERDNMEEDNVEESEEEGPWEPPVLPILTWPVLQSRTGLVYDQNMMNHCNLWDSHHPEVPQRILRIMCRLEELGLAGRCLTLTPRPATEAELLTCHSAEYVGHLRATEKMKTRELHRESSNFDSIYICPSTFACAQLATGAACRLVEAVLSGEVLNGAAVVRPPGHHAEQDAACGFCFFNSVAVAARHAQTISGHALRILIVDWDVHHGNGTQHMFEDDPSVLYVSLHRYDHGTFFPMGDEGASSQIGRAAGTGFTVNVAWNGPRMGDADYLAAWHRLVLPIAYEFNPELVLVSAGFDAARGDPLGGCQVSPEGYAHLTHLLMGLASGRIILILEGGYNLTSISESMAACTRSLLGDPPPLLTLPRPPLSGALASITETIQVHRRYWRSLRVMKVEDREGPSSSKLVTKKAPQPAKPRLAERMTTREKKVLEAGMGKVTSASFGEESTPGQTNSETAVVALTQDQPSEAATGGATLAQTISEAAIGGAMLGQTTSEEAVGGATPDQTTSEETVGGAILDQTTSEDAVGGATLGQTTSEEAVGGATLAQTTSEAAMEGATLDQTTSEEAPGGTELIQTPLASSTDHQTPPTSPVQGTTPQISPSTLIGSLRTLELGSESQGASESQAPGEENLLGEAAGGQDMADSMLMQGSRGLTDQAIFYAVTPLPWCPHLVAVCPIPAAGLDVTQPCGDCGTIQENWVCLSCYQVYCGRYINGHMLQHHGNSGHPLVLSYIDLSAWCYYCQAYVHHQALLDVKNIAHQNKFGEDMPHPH
Method: as §1
HDAC assays. […] Compounds were added in DMSO such that final assay concentrations were 1% DMSO. IC50s were calculated using Prism 3.0 software. Curve fitting was done without constraints using the program's Sigmoidal-Dose Response parameters. All data points were acquired in duplicate and IC50s are calculated from the composite results of at least two separate experiments.
Tubulin and MAPs were isolated from bovine brain as described [See http://mitchison.med.harvard.edu/protocols/tubprep.html]. Whole brain and fractions from phosphocellulose chromatography were blotted for HDAC6 and acetylated α-tubulin. Cultured hippocampal neurons from dissociated 1-day old rat brains were transfected with an enhanced green fluorescent protein (EGFP)-actin construct at 4-5 days using the calcium phosphate method [E. N. Star, D. J. Kwiatkowski and V. N. Murthy, Nat. Neurosci. […] K. Miranti and M. E. Greenberg, J. Neurosci. […] Transfected cultures were allowed to grow for at least 48 h before the addition of experimental compounds.
[^3H]Acetate-incorporated histones were isolated from butyrate-treated HeLa cells as described [J. Taunton, C. […] Immunoprecipitates were incubated with acetylated histones and HDAC activity determined by scintillation counting as described [J. Taunton, C. […] TDAC assays were performed with immunoprecipitates using MAP-stabilized microtubules polymerized from MAP-rich tubulin fraction as described [C. […] Reactions were incubated (2 h) at 37° C., then incubated on ice (15 min).

Ure2p [1] = target: T3, Ure2p (Saccharomyces cerevisiae, UniProt P23202); assay: PUT1-lacZ reporter β-galactosidase assay; type: cell-based; conditions: yeast in YPD, 30 °C, 60-90 min; rapamycin 50 nM
T3 construct: endogenous in cells; host or cells: yeast strain DB26-3A (MAT-a ura3-52 ade2 PUT1-lacZ)
T3 sequence (P23202 1-354): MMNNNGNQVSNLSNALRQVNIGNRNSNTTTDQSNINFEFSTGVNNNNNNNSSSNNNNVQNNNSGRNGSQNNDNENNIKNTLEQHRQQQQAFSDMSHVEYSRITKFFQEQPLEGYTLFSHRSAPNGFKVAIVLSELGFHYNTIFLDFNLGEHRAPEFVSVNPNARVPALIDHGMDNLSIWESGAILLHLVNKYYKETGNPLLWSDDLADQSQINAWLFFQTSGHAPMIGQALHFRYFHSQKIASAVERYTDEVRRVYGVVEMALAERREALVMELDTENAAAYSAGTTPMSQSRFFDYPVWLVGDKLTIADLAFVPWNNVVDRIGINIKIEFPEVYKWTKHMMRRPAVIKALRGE
Method: (§2) FIG. 24 depicts studies in vivo, dose response and structure-activity relationships of uretupamine. (A) A yeast strain (DB26-3A) growing in YPD medium expressing a PUT1-lacZ reporter was treated with 50 nM rapamycin or with a compound that had been detected to bind to labelled Ure2p on a small-molecule microarray. After 90 min of treatment at 30° C., a standard liquid b-galactosidase assay was performed. Data are expressed in fold Miller units compared with treatment with 50 nM rapamycin for 90 minutes. DB26-3A (MAT-a ura3-52 ade2 PUT1-lacZ) was a gift from M. Brandriss. Vehicle: samples treated with N,N-dimethylformamide (DMF), the vehicle into which library compounds were dissolved (B): Uretupamine A was resynthesized and tested in the b-galactosidase assay by using the PUT1-lacZ reporter at the concentrations indicated for 60 min at 30 C in YPD medium. (C) Compounds derived from the uretupamine A structure were synthesized to explore structure-activity relationships. Listed are b-galactosidase assay results of treatment with each compound at 100 μM (asterisk designates 50 μM) for 60 min at 30 C in YPD medium. Data are in percentage Miller units compared with treating with 50 nM rapamycin for 60 min. […] (D) Binding of uretupamine B to Ure2p was determined by using surface plasmon resonance (BIAcore 3000) to have a dissociation constant of 7.5 μM. […]

Ure2p [2] = target: T3, Ure2p; assay: surface plasmon resonance (BIAcore 3000) binding to immobilized Ure2p; set-up: species or system yeast; conditions: PBS/Tween-20 with 10% DMF, read-out: equilibrium dissociation constant for binding to Ure2p
Method: as §2

Ure2p-controlled genes = assay: whole-genome transcription profiling of yeast strains; type: cell-based; conditions: 100 μM, 30 min
Method: FIG. 25 depicts transcription profiling of treatment with uretupamine. (A) The left microarray corresponds to wild-type cells (PM38) treated with vehicle (DMF) versus wild type (w.t.) cells treated for 30 min with uretupamine A at 100 μM. The right microarray corresponds to ure2Δ cells (PH2) treated with vehicle versus ure2Δ cells treated for 30 min with uretupamine A at 100 μM. Profiles were obtained as described (Hardwick et al. Proc. Natl. Acad. Sci. USA 1999, 96, 14866-14870). At the right are shown specific gene inductions of some URE2-dependent genes from the microarrays. PM38 (MATaleu2-3,112 ura3-52), PM71 (MA4Taleu2-3, 112 ura3-52 gln3Δ5::LEU2), MS221 (MATaura3-52 nil1::hisG), PH2 (MATaleu2-3, 112 ura3-52 ure2Δ12::URA3) were gifts from B. Magasanik and M. Brandriss. (B) The transcription profiles of wild-type cells (PM38), ure2Δ cells (PH2), gln3Δ cells (PM71) and nil1Δ cells (MS221) grown in YPD medium treated for 30 min with 100 μM uretupamine B were obtained. The geometric means of gene inductions of the sets listed are shown. (C) An analysis was performed based on treating individual profiles as high-dimensional vectors and then examining the ratios of their magnitudes as a measure of relative activity (Shamji et al. Curr. Biol. 2000, 10, 1574-1581; Kuruvilla et al. Genome Biol. 2002, 3(3), 0011.1-0011.11).
To determine the precise effects and specificity of uretupamine, whole-genome transcription profiling was used in wild-type cells as well as an otherwise isogenic ure2D strain-a ‘targetless’ strain (Marton et al. Nature Med 1998, 4, 1293-1301). […] The expression of other genes (including GAP1, MEP2, AGP1, BAT2 and DAL5) controlled by Ure2p was essentially unchanged (FIG. 25A,B).

[3] = solubility in yeast medium; type: physicochemical; conditions: higher concentrations

T1 sequence (Q13547 whole entry): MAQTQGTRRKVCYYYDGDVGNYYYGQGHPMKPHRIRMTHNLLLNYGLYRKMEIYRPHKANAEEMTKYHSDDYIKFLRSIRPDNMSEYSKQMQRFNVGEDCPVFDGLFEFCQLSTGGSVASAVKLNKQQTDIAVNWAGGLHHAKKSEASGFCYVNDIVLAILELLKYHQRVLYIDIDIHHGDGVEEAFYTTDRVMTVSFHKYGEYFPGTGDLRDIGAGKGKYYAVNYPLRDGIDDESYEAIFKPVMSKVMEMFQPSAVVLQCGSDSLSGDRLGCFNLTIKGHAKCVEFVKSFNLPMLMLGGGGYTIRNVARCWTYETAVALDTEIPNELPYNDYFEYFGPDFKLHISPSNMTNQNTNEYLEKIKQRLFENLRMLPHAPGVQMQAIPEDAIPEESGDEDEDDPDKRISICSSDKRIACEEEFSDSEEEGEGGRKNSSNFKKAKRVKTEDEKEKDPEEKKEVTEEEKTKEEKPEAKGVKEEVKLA

O=S(=O)(NCc1ccc(C2O[C@H](CSc3ccc(O)cc3)C[C@H](c3ccc(CO)cc3)O2)cc1)c1ccccc1 (mixture of isomers) [compound 12, (±)-N-[[4-(4R,6S)-4-[4-(hydroxymethyl)phenyl]-6-[[4-hydroxyphenyl)thio]methyl]-1,3-dioxan-2-yl]phenyl]methyl-benzenesulfonamide]
phenotype in HeLa cells by microscopy (HeLa cells): altered actin staining phenotype

Cc1ccc(S(=O)(=O)N[C@@H](Cc2ccccc2)C(=O)Nc2cccc(C3O[C@H](CN4CCC(O)(c5ccc(Cl)cc5)CC4)[C@H](C)[C@H](c4ccc(CO)cc4)O3)c2)cc1 (stereo partly shown) [compound 11]
IC50 (HDAC1): > 50 µM
phenotype in HeLa cells by microscopy (HeLa cells): cell detachment
IC50 (HDAC6): > 50 µM

NCc1ccc([C@@H]2O[C@H](CSc3nc(-c4ccccc4)c(-c4ccccc4)o3)[C@@H](c3ccccc3)[C@H](c3ccc(CO)cc3)O2)cc1 (relative stereo) [uretupamine A]
activation of PUT1-lacZ reporter (Ure2p [1]): gave a concentration dependent dose response that at higher concentrations approached the levels of reporter gene activation induced by rapamycin
Kd (Ure2p [2]): 18.1 µM
gene induction in ure2Δ strain (Ure2p-controlled genes): little or no effect on either set of genes
gene induction in wild-type cells (Ure2p-controlled genes): upregulated only a subset of genes
solubility in yeast medium [3]: poor solubility at higher concentrations in yeast medium

NCc1ccc([C@@H]2O[C@H](CSc3nc(-c4ccccc4)c(-c4ccccc4)o3)C[C@H](c3ccc(CO)cc3)O2)cc1 (relative stereo) [uretupamine B]
activation of PUT1-lacZ reporter (Ure2p [1]): more potent than uretupamine A
Kd (Ure2p [2]): 7.5 µM
gene induction in gln3Δ strain (Ure2p-controlled genes): deleting GLN3 had little effect on the actions of uretupamine
gene induction in nil1Δ strain (Ure2p-controlled genes): deleting NIL1 abrogated its actions
gene induction in ure2Δ strain (Ure2p-controlled genes): little or no effect on either set of genes
gene induction in wild-type cells (Ure2p-controlled genes): upregulated only a subset of genes
solubility in yeast medium [3]: more soluble derivative
